From PubChem BioAssay (NCI)
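Each compound was tested at five concentrations against cells in 96-well plates for 48 hours. Abbreviation: GI50, concentration required for 50% inhibition of growth. TGI marks complete inhibition of growth.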

Legend:
Assay in all cases: DTP human tumour cell line panel, 48 h
COLO 205 colon = tested on: COLO 205 colon
HCC-2998 colon = tested on: HCC-2998 colon
HT29 colon = tested on: HT29 colon
KM12 colon = tested on: KM12 colon
MOLT-4 leukemia = tested on: MOLT-4 leukemia
NCI/ADR-RES ovarian = tested on: NCI/ADR-RES ovarian
OVCAR-3 ovarian = tested on: OVCAR-3 ovarian
SK-MEL-2 melanoma = tested on: SK-MEL-2 melanoma
SK-MEL-5 melanoma = tested on: SK-MEL-5 melanoma
SN12C renal = tested on: SN12C renal
SF-539 CNS = tested on: SF-539 CNS

Compound | TGI (COLO 205 colon) [µM] | TGI (HCC-2998 colon) [µM] | TGI (HT29 colon) [µM] | TGI (KM12 colon) [µM] | TGI (MOLT-4 leukemia) [µM] | TGI (NCI/ADR-RES ovarian) [µM] | TGI (OVCAR-3 ovarian) [µM] | TGI (SK-MEL-2 melanoma) [µM] | TGI (SK-MEL-5 melanoma) [µM] | TGI (SN12C renal) [µM] | TGI (SF-539 CNS) [µM] | GI50 (COLO 205 colon) [µM] | GI50 (HCC-2998 colon) [µM] | GI50 (HT29 colon) [µM] | GI50 (MOLT-4 leukemia) [µM] | GI50 (OVCAR-3 ovarian) [µM] | GI50 (SK-MEL-5 melanoma) [µM] | GI50 (SN12C renal) [µM]
COc1cccc2c1CCc1sc(CN3CCN(C)CC3)nc1-2 | > 100 | > 100 | 54.1 | > 100 | 63.9 | > 100 | > 100 | > 100 | 80.1 | > 100 | – | – | – | – | – | – | – | –
O=C(NC1CCCCC1)N1CCNC1=S | > 100 | > 100 | > 100 | > 100 | > 100 | > 100 | > 100 | 7.09 | > 100 | > 100 | > 100 | – | – | – | – | – | – | –
C#CCN(Cc1ccc2nc(-c3ccccc3)c(Cl)nc2c1)c1ccc(Cl)c(Cl)c1 | > 100 | 96.8 | > 100 | > 100 | > 100 | – | > 100 | > 100 | > 100 | > 100 | > 100 | – | – | – | – | – | – | –
COc1ccc(CNCCN2C(=O)c3ccc4c5c(ccc(c35)C2=O)C(=O)N(CCNCc2ccc(OC)c(OC)c2OC)C4=O)c(OC)c1OC | 0.168 | 0.59 | 0.589 | – | 0.613 | – | 0.353 | – | 1.09 | 0.207 | – | 0.0899 | 0.167 | 0.164 | 0.151 | 0.121 | 0.48 | 0.0942
Clc1ccc(CCNCCNC2(c3cc4ccccc4s3)CCCCC2)cc1Cl | 2.99 | 2.82 | 3.59 | 3.1 | 4.53 | 3.47 | 2.91 | 3.2 | 3.12 | 3.53 | – | – | – | – | – | – | – | –
CCC(/C(=N/NC(=O)C[N+](C)(C)C)c1ccccc1)C1OC(=O)c2ccccc21 (stereo unspecified) | > 100 | > 100 | > 100 | > 100 | > 100 | – | > 100 | – | > 100 | > 100 | > 100 | – | – | – | – | – | – | –
Nc1nc2c(nnn2C2C=C(CO)C(O)C2O)c(=O)[nH]1 (stereo unspecified) | > 100 | > 100 | > 100 | > 100 | > 100 | – | > 100 | > 100 | > 100 | > 100 | > 100 | – | – | – | – | – | – | –
COc1c(C(=O)CC2c3c(cc4oc(C)cc(=O)c4c3OC)OC(=N)C2c2nc3ccccc3[nH]2)c(O)c(OC)c2occc12 (stereo unspecified) | > 100 | > 100 | > 100 | > 100 | > 100 | > 100 | > 100 | > 100 | > 100 | > 100 | – | – | – | – | – | – | – | –
O=C1C2=C(c3ccccc31)C(c1ccc([N+](=O)[O-])cc1)NC(=S)N2 (stereo unspecified) | > 100 | – | > 100 | > 100 | > 100 | – | > 100 | > 100 | > 100 | > 100 | > 100 | – | – | – | – | – | – | –
N#Cc1cc([N+](=O)[O-])ccc1NC(=O)C(=O)Nn1c(=S)[nH]c2ccccc2c1=O | > 100 | > 100 | > 100 | > 100 | – | – | > 100 | – | > 100 | > 100 | > 100 | – | – | – | – | – | – | –
